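Results reflect a 48-hour exposure of cells in 96-well plates to compound at five concentrations. At the GI50, growth is halved. TGI: total growth inhibition.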
Assays:
Test in all cases: inhibition of tumour cell growth, NCI panel, 48 h
[1] = system: 786-0 renal
[2] = system: A498 renal
[3] = system: A549 NSCLC
[4] = system: ACHN renal
[5] = system: BT-549 breast
[6] = system: CAKI-1 renal
[7] = system: CCRF-CEM leukemia
[8] = system: COLO 205 colon
[9] = system: DU-145 prostate
[10] = system: HCC-2998 colon
[11] = system: HCT-116 colon
[12] = system: HCT-15 colon
[13] = system: HL-60(TB) leukemia
[14] = system: HOP-62 NSCLC
[15] = system: HOP-92 NSCLC
[16] = system: HS 578T breast
[17] = system: HT29 colon
[18] = system: IGROV1 ovarian
[19] = system: K-562 leukemia
[20] = system: KM12 colon
[21] = system: LOX IMVI melanoma
[22] = system: M14 melanoma
[23] = system: MALME-3M melanoma
[24] = system: MCF7 breast
[25] = system: MDA-MB-231 breast
[26] = system: MDA-MB-435
[27] = system: MOLT-4 leukemia
[28] = system: NCI-H226 lung
[29] = system: NCI-H23 lung
[30] = system: NCI-H460 lung
[31] = system: NCI-H522 lung
[32] = system: OVCAR-3 ovarian
[33] = system: OVCAR-4 ovarian
[34] = system: OVCAR-5 ovarian
[35] = system: OVCAR-8 ovarian
[36] = system: PC-3 prostate
[37] = system: RPMI-8226 leukemia
[38] = system: RXF 393 renal
[39] = system: SF-268 CNS
[40] = system: SF-295 CNS
[41] = system: SF-539 CNS
[42] = system: SK-MEL-2 melanoma
[43] = system: SK-MEL-28 melanoma
[44] = system: SK-MEL-5 melanoma
[45] = system: SK-OV-3 ovarian
[46] = system: SN12C renal
[47] = system: SNB-19 CNS
[48] = system: SR leukemia
[49] = system: SW-620 colon
[50] = system: T-47D breast
[51] = system: TK-10 renal
[52] = system: U251 CNS
[53] = system: UACC-257 melanoma
[54] = system: UACC-62 melanoma
[55] = system: UO-31 renal

## NCCCCCNc1noc(Cc2c[nH]c3cc(Br)ccc23)n1
[1]
  GI50: 5.24 µM
  TGI: 27.1 µM
[2]
  GI50: 1.76 µM
  TGI: 10.7 µM
[3]
  GI50: 3.88 µM
  TGI: 38.8 µM
[4]
  GI50: 9.02 µM
  TGI: 21.7 µM
[5]
  GI50: 2.43 µM
  TGI: 24.4 µM
[6]
  GI50: 6.84 µM
  TGI: > 100 µM
[7]
  GI50: 1.81 µM
  TGI: 8.2 µM
[8]
  GI50: 1.52 µM
  TGI: 3.22 µM
[9]
  GI50: 3.11 µM
  TGI: 9.01 µM
[10]
  GI50: 2.84 µM
  TGI: 14.7 µM
[11]
  GI50: 0.675 µM
  TGI: 13.4 µM
[12]
  GI50: 0.834 µM
  TGI: 17.9 µM
[13]
  GI50: 1.66 µM
  TGI: 9.15 µM
[14]
  GI50: 3.79 µM
  TGI: 29.3 µM
[15]
  GI50: 4.62 µM
  TGI: 33.6 µM
[16]
  GI50: 1.99 µM
  TGI: 22.1 µM
[17]
  GI50: 1.08 µM
  TGI: 10.3 µM
[18]
  GI50: 5.09 µM
  TGI: 27.4 µM
[19]
  GI50: 0.469 µM
  TGI: 14.7 µM
[20]
  GI50: 1.24 µM
  TGI: 14.7 µM
[21]
  GI50: 2.81 µM
  TGI: 17.6 µM
[22]
  GI50: 0.445 µM
  TGI: 10.3 µM
[23]
  GI50: 2.59 µM
  TGI: 22.7 µM
[24]
  GI50: 3.42 µM
  TGI: 16.3 µM
[25]
  GI50: 2.78 µM
  TGI: 15.7 µM
[26]
  GI50: 0.327 µM
  TGI: 2.33 µM
[27]
  GI50: 2.44 µM
  TGI: 18.6 µM
[28]
  GI50: 12.7 µM
  TGI: 26.5 µM
[29]
  GI50: 1.76 µM
  TGI: 8.75 µM
[30]
  GI50: 3.12 µM
  TGI: 12 µM
[31]
  GI50: 0.748 µM
  TGI: 12.6 µM
[32]
  GI50: 1.4 µM
  TGI: 3.39 µM
[33]
  GI50: 6.7 µM
  TGI: 52.4 µM
[34]
  GI50: 5.29 µM
  TGI: 24.6 µM
[35]
  GI50: 3.74 µM
  TGI: 39.4 µM
[36]
  GI50: 3.2 µM
  TGI: 45.7 µM
[37]
  GI50: 2.88 µM
  TGI: 25.2 µM
[38]
  GI50: 1.54 µM
  TGI: 5.17 µM
[39]
  GI50: 8.13 µM
  TGI: 29.1 µM
[40]
  GI50: 2.53 µM
  TGI: 25.3 µM
[41]
  GI50: 2.15 µM
  TGI: 5.84 µM
[42]
  GI50: 3.22 µM
  TGI: 16.3 µM
[43]
  GI50: 3.93 µM
  TGI: 19.3 µM
[44]
  GI50: 2.08 µM
  TGI: 16.2 µM
[45]
  GI50: 2.46 µM
  TGI: 12.5 µM
[46]
  GI50: 3.54 µM
  TGI: 16.9 µM
[47]
  GI50: 7.67 µM
  TGI: 25.6 µM
[48]
  GI50: 0.406 µM
  TGI: 14.1 µM
[49]
  GI50: 0.707 µM
  TGI: 16.9 µM
[50]
  GI50: 5.15 µM
  TGI: 30.1 µM
[51]
  GI50: 7.66 µM
  TGI: 22.3 µM
[52]
  GI50: 2.89 µM
  TGI: 16.6 µM
[53]
  GI50: 11.9 µM
  TGI: 25.5 µM
[54]
  GI50: 0.551 µM
  TGI: 10.1 µM
[55]
  GI50: 3.46 µM
  TGI: 25.3 µM

Source: PubChem BioAssay (NCI)
